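Dose response: 5 concentrations. Exposure: 48 h. Format: 96-well plates. Endpoint: linear interpolation; highest concentration if not reached. Abbreviation: GI50, concentration required for 50% inhibition of growth. The concentration for full growth arrest is given as TGI.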
What was measured:
Assay in all cases: NCI anticancer screen, dose series, 48 h
[1] = tested on: M14 melanoma
[2] = tested on: HOP-62 NSCLC
[3] = tested on: PC-3 prostate
[4] = tested on: IGROV1 ovarian
[5] = tested on: SNB-75 CNS
[6] = tested on: U251 CNS
[7] = tested on: NCI-H460 lung
[8] = tested on: OVCAR-5 ovarian
[9] = tested on: TK-10 renal
[10] = tested on: SF-295 CNS
[11] = tested on: NCI/ADR-RES ovarian
[12] = tested on: SNB-19 CNS
[13] = tested on: K-562 leukemia
[14] = tested on: UACC-257 melanoma
[15] = tested on: SF-539 CNS
[16] = tested on: SK-OV-3 ovarian
[17] = tested on: HOP-92 NSCLC
[18] = tested on: SF-268 CNS
[19] = tested on: MOLT-4 leukemia
[20] = tested on: CCRF-CEM leukemia
[21] = tested on: HT29 colon
[22] = tested on: RXF 393 renal
[23] = tested on: SK-MEL-28 melanoma
[24] = tested on: HCC-2998 colon
[25] = tested on: HL-60(TB) leukemia
[26] = tested on: A549 NSCLC
[27] = tested on: SR leukemia
[28] = tested on: MDA-MB-435
[29] = tested on: NCI-H226 lung
[30] = tested on: ACHN renal
[31] = tested on: HCT-15 colon
[32] = tested on: KM12 colon
[33] = tested on: OVCAR-3 ovarian
[34] = tested on: HS 578T breast
[35] = tested on: SW-620 colon
[36] = tested on: OVCAR-8 ovarian
[37] = tested on: MCF7 breast
[38] = tested on: RPMI-8226 leukemia
[39] = tested on: OVCAR-4 ovarian
[40] = tested on: SK-MEL-2 melanoma
[41] = tested on: EKVX NSCLC
[42] = tested on: SN12C renal
[43] = tested on: NCI-H23 lung
[44] = tested on: 786-0 renal
[45] = tested on: COLO 205 colon
[46] = tested on: UACC-62 melanoma
[47] = tested on: T-47D breast
[48] = tested on: DU-145 prostate
[49] = tested on: UO-31 renal
[50] = tested on: BT-549 breast
[51] = tested on: MDA-MB-231 breast
[52] = tested on: HCT-116 colon
[53] = tested on: LOX IMVI melanoma
[54] = tested on: SK-MEL-5 melanoma
[55] = tested on: CAKI-1 renal
[56] = tested on: NCI-H522 lung
[57] = tested on: A498 renal

SMILES: COc1ccc(C2=N/C(=C\c3ccccc3)C(=O)O2)cc1
- TGI [1]: > 100 µM
- TGI [2]: > 100 µM
- TGI [3]: > 100 µM
- TGI [4]: > 100 µM
- TGI [5]: > 100 µM
- TGI [6]: > 100 µM
- TGI [7]: > 100 µM
- TGI [8]: > 100 µM
- TGI [9]: > 100 µM
- TGI [10]: > 100 µM
- TGI [11]: 43.4 µM
- TGI [12]: > 100 µM
- TGI [13]: > 100 µM
- TGI [14]: > 100 µM
- TGI [15]: > 100 µM
- TGI [16]: > 100 µM
- TGI [17]: > 100 µM
- TGI [18]: > 100 µM
- TGI [19]: 52.6 µM
- TGI [20]: > 100 µM
- TGI [21]: > 100 µM
- TGI [22]: > 100 µM
- TGI [23]: > 100 µM
- TGI [24]: > 100 µM
- TGI [25]: 31 µM
- TGI [26]: > 100 µM
- TGI [27]: 57.5 µM
- TGI [28]: > 100 µM
- TGI [29]: 98.1 µM
- TGI [30]: > 100 µM
- TGI [31]: > 100 µM
- TGI [32]: > 100 µM
- TGI [33]: > 100 µM
- TGI [34]: > 100 µM
- TGI [35]: > 100 µM
- TGI [36]: > 100 µM
- TGI [37]: > 100 µM
- TGI [38]: > 100 µM
- TGI [39]: > 100 µM
- TGI [40]: > 100 µM
- TGI [41]: > 100 µM

SMILES: ClCc1cccc(Cn2cnc3ncnc(Cl)c32)c1
- GI50 [1]: 3.05 µM
- TGI [1]: 14.6 µM
- GI50 [2]: 2.17 µM
- TGI [2]: 3.99 µM
- GI50 [3]: 2.13 µM
- TGI [3]: 5.32 µM
- GI50 [4]: 3.38 µM
- TGI [4]: 13.8 µM
- GI50 [42]: 7.02 µM
- TGI [42]: 20.2 µM
- GI50 [43]: 1.23 µM
- TGI [43]: 3.38 µM
- GI50 [5]: 1.84 µM
- TGI [5]: 3.53 µM
- GI50 [6]: 1.97 µM
- TGI [6]: 3.95 µM
- GI50 [7]: 2.09 µM
- TGI [7]: 4.45 µM
- GI50 [44]: 2.06 µM
- TGI [44]: 4.09 µM
- GI50 [45]: 2.61 µM
- TGI [45]: > 100 µM
- GI50 [46]: 2.16 µM
- TGI [46]: 5.39 µM
- GI50 [8]: 6.74 µM
- TGI [8]: 19.8 µM
- GI50 [9]: 1.76 µM
- TGI [9]: 3.3 µM
- GI50 [47]: 0.212 µM
- TGI [47]: 0.497 µM
- GI50 [10]: 6.35 µM
- TGI [10]: 19 µM
- GI50 [11]: 2.78 µM
- TGI [11]: 9.75 µM
- GI50 [48]: 15.2 µM
- TGI [48]: 31 µM
- GI50 [49]: 1.54 µM
- TGI [49]: 3.11 µM
- GI50 [50]: 13.1 µM
- TGI [50]: 28.6 µM
- GI50 [13]: 16.6 µM
- TGI [13]: 48.1 µM
- GI50 [14]: 1.96 µM
- TGI [14]: 5.52 µM
- GI50 [51]: 1.72 µM
- TGI [51]: 3.4 µM
- GI50 [15]: 19.9 µM
- TGI [15]: 36 µM
- GI50 [16]: 10.8 µM
- TGI [16]: 25.5 µM
- GI50 [52]: 1.78 µM
- TGI [52]: 5.21 µM
- GI50 [18]: 1.66 µM
- TGI [18]: 3.5 µM
- GI50 [19]: 10.6 µM
- TGI [19]: 29.4 µM
- GI50 [20]: 6.91 µM
- TGI [20]: 22.2 µM
- GI50 [21]: 2.89 µM
- TGI [21]: > 100 µM
- GI50 [22]: 2.02 µM
- TGI [22]: 17.4 µM
- GI50 [23]: 1.81 µM
- TGI [23]: 3.52 µM
- GI50 [24]: 1.68 µM
- TGI [24]: 3.25 µM
- GI50 [26]: 17.2 µM
- TGI [26]: 39.6 µM
- GI50 [28]: 3.46 µM
- TGI [28]: 12.9 µM
- GI50 [29]: 3.19 µM
- TGI [29]: 8.67 µM
- GI50 [53]: 3.11 µM
- TGI [53]: 14 µM
- GI50 [30]: 1.88 µM
- TGI [30]: 3.53 µM
- GI50 [31]: 1.96 µM
- TGI [31]: 4.34 µM
- GI50 [32]: 1.85 µM
- TGI [32]: 3.32 µM
- GI50 [33]: 1.77 µM
- TGI [33]: 3.23 µM
- GI50 [54]: 4.65 µM
- TGI [54]: 18.2 µM
- GI50 [34]: 18.2 µM
- TGI [34]: 42.3 µM
- GI50 [55]: 2.12 µM
- TGI [55]: 4.04 µM
- GI50 [35]: 15.2 µM
- TGI [35]: 32.2 µM
- GI50 [36]: 3.1 µM
- TGI [36]: 14.9 µM
- GI50 [56]: 6.19 µM
- TGI [56]: 23.9 µM
- GI50 [38]: 13.7 µM
- TGI [38]: 34.9 µM
- GI50 [39]: 4.17 µM
- TGI [39]: 16 µM
- GI50 [40]: 5.76 µM
- TGI [40]: 22.8 µM
- GI50 [41]: 13.7 µM
- TGI [41]: 29.7 µM
- GI50 [57]: 18.4 µM
- TGI [57]: 35.9 µM

SMILES: OC(c1cc(-c2ccc(C(F)(F)F)cc2)nc(-c2ccc(C(F)(F)F)cc2)c1)C1CCCCN1 (configuration not stated)
- GI50 [4]: 1.83 µM
- TGI [4]: 3.67 µM
- GI50 [6]: 1.71 µM
- TGI [6]: 3.32 µM
- GI50 [7]: 1.62 µM
- TGI [7]: 3.08 µM
- GI50 [45]: 0.893 µM
- TGI [45]: 2.1 µM
- GI50 [8]: 1.58 µM
- TGI [8]: 3.06 µM
- GI50 [9]: 1.82 µM
- TGI [9]: 3.28 µM
- GI50 [10]: 1.75 µM
- TGI [10]: 3.33 µM
- GI50 [48]: 1.78 µM
- TGI [48]: 3.16 µM
- GI50 [49]: 1.56 µM
- TGI [49]: 3.3 µM
- GI50 [52]: 1.66 µM
- TGI [52]: 3.18 µM
- GI50 [21]: 1.62 µM
- TGI [21]: 3.09 µM
- GI50 [25]: 2.05 µM
- TGI [25]: 3.88 µM
- GI50 [26]: 1.72 µM
- TGI [26]: 3.28 µM
- GI50 [33]: 1.78 µM
- TGI [33]: 3.25 µM
- GI50 [34]: 1.47 µM
- TGI [34]: 3.2 µM
- GI50 [55]: 1.89 µM
- TGI [55]: 3.79 µM
- GI50 [36]: 1.47 µM
- TGI [36]: 3.1 µM
- GI50 [57]: 1.56 µM
- TGI [57]: 2.96 µM

SMILES: O=C(O)C1CC[N-]CC1.O=C(O)C1CC[N-]CC1.[Cl][Pt+2]([Cl])([Cl])[Cl]
- GI50 [22]: 34.2 µM

— PubChem BioAssay (NCI)
